In patent publication US20120101100A1 (priority 2008, published 2012):
Counter-ions that a name gives are not always drawn.

Each compound was assayed against S. aureus GyrB ATPase (Staphylococcus aureus, UniProt P0A0K8) (assay: S. aureus (SAU) GyrB ATPase inhibition, malachite green phosphate detection (E. coli GyrA + S. aureus GyrB)). Details: compound concentration of 1.0 μM unless otherwise noted; average value where assay was carried out more than once; read-out: S. aureus (SAU) GyrB ATPase % Inhibition.
Format: biochemical
Method in brief: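 Phosphate from ATP hydrolysis (500 μM ATP) read as malachite green/molybdate absorbance at 650 nm after acid quench. Reaction: 1.25 nM S. aureus GyrB plus 1.25 nM E. coli GyrA, sheared DNA, Hepes pH 7.5 with Mg2+. IC50 fitted over 10 concentrations, normalised to DMSO (2%) and novobiocin (2 μM) controls.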

Sequence of S. aureus GyrB ATPase (P0A0K8 whole entry): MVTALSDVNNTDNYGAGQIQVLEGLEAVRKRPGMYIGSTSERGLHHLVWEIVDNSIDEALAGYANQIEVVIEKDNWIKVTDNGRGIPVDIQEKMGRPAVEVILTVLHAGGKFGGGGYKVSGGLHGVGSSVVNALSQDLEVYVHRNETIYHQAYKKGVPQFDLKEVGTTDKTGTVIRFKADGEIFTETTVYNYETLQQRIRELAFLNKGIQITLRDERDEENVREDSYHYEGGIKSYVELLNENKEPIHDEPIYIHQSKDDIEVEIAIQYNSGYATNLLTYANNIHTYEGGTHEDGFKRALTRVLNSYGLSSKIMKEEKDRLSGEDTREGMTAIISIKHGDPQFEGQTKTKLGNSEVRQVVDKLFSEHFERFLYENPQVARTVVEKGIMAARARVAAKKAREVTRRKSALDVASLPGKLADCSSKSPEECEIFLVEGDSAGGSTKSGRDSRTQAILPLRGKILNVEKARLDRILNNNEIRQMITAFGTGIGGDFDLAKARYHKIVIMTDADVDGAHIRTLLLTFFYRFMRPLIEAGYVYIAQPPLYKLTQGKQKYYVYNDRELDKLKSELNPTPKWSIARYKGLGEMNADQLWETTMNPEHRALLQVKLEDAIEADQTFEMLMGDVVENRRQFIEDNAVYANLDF
Sequence of S. aureus GyrB ATPase (P0AES4 whole entry, further chain): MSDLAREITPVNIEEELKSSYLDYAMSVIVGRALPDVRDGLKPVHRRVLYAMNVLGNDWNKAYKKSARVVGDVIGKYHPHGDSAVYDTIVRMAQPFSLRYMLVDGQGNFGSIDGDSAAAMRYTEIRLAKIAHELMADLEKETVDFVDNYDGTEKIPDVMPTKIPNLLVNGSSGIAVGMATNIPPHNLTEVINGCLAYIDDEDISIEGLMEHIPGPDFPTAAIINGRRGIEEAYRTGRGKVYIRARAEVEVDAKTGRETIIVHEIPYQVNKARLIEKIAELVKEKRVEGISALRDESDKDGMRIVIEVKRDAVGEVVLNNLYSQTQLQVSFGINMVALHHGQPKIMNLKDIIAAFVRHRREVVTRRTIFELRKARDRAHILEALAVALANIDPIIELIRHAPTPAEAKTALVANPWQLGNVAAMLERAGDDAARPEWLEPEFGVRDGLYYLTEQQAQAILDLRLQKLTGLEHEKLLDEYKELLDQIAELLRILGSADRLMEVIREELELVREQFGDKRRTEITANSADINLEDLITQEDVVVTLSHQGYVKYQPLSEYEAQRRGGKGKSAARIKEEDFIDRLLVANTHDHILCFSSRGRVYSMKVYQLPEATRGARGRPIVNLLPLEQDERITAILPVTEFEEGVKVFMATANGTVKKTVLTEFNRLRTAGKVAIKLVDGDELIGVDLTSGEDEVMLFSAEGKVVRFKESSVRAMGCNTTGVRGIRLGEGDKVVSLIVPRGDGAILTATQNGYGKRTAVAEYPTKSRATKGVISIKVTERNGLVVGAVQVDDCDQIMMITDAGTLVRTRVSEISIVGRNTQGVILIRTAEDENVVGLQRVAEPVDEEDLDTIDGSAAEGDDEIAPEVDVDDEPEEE

In order of rising inhibition at 1 µM:
1. CCNC(=O)Nc1cc(-c2nc(C(F)(F)F)cs2)c(-c2cc(-c3nnc(C)o3)cnc2OCC2CCOCC2)cn1 [Example 113, 1-Ethyl-3-{5′-(5-methyl-1,3,4-oxadiazol-2-yl)-2′-(tetrahydro-2H-pyran-4-ylmethoxy)-4-[4-(trifluoromethyl)-1,3-thiazol-2-yl]-3,3′-bipyridin-6-yl}urea]  45%
2. CCCNC(=O)Nc1cc(-c2nc(C(F)(F)F)cs2)c(-c2cc(-c3nnc(C)o3)cnc2OCCN2CCCC2)cn1 [Example 168]  69%
3. CCNC(=O)Nc1cc(-c2nnc(-c3ccccc3)o2)c(-c2nc(-c3n[nH]c(=O)o3)cs2)cn1 [Example 193]  89%
4. CCNC(=O)Nc1cc(-c2nc(C(F)(F)F)c(C)s2)c(-c2cnc(OC)c(-c3n[nH]c(=O)o3)c2)cn1 [Example 144]  90%
5. CCNC(=O)Nc1cc(-c2nc(C(F)(F)F)c(C(=O)NC3CC3)s2)c(-c2cncc(-c3nnc(C)o3)c2)cn1 [Example 66, N-cyclopropyl-2-(6-(3-ethylureido)-5′-(5-methyl-1,3,4-oxadiazol-2-yl)-3,3′-bipyridin-4-yl)-4-(trifluoromethyl)thiazole-5-carboxamide]  93%
6. CCNC(=O)Nc1cc(-c2nc(C(F)(F)F)cs2)c(-c2ccnc(-c3nnc(C)o3)c2)cn1 [Example 228]  93%
7. CCNC(=O)Nc1cc(-c2nc(-c3ccccc3)cs2)c(-c2cc(-c3n[nH]c(=O)o3)nc(N3CCOCC3)c2)cn1 [Example 88]  94%
8. CCNC(=O)Nc1cc(-c2nc(C(F)(F)F)cs2)c(-c2cc(-c3n[nH]c(=O)o3)cnc2OCC2CCOCC2)cn1 [Example 112, 1-Ethyl-3-{5′-(5-oxo-4,5-dihydro-1,3,4-oxadiazol-2-yl)-2′-(tetrahydro-2H-pyran-4-ylmethoxy)-4-[4-(trifluoromethyl)-1,3-thiazol-2-yl]-3,3′-bipyridin-6-yl}urea]  95%
9. CCNC(=O)Nc1cc(-c2nc(C(F)(F)F)cs2)c(-c2cncc(C3=NNC(=O)CO3)c2)cn1 [Example 282, 1-ethyl-3-(5′-(5-oxo-5,6-dihydro-4H-1,3,4-oxadiazin-2-yl)-4-(4-(trifluoromethyl)thiazol-2-yl)-3,3′-bipyridin-6-yl)urea]  96%
10. CCNC(=O)Nc1cc(-c2nc(C(F)(F)F)cs2)c(-c2cnc(N)c(-c3nnc(C)o3)c2)cn1 [Example 258, 1-(6′-amino-5′-(5-methyl-1,3,4-oxadiazol-2-yl)-4-(4-(trifluoromethyl)thiazol-2-yl)-3,3′-bipyridin-6-yl)-3-ethylurea]  96%
11. CCNC(=O)Nc1cc(-c2nc(C(F)(F)F)cs2)c(-c2cncc(/C(N)=N/O)c2)cn1 [Example 163, 6′-(3-Ethylureido)-N′-hydroxy-4′-(4-(trifluoromethyl)thiazol-2-yl)-3,3′-bipyridine-5-carboximidamide]  96%
12. CCNC(=O)Nc1cc(-c2nc(C(F)(F)F)cs2)c(-c2ccnc(-c3nnc([C@@H](NC)C(C)C)o3)c2)cn1 [Example 244, (S)-1-ethyl-3-(2′-(5-(2-methyl-1-(methylamino)propyl)-1,3,4-oxadiazol-2-yl)-4-(4-(trifluoromethyl)thiazol-2-yl)-3,4′-bipyridin-6-yl)urea]  96%
13. CCNC(=O)Nc1cc(-c2nc(C(F)(F)F)cs2)c(-c2cncc(-c3nnc([C@@H](N)C(C)C)o3)c2)cn1 [Example 183]  96%
14. CCNC(=O)Nc1cc(-c2nc(C(F)(F)F)cs2)c(-c2cc(-c3n[nH]c(=O)o3)cnc2OC)cn1 [Example 101, 1-Ethyl-3-(2′-methoxy-5′-(5-oxo-4,5-dihydro-1,3,4-oxadiazol-2-yl)-4-(4-(trifluoromethyl)thiazol-2-yl)-3,3′-bipyridin-6-yl)urea]  97%
15. CCNC(=O)Nc1cc(-c2nc(C(F)(F)F)cs2)c(-c2cc(-c3nnc(C)o3)cnc2OC2CCOCC2)cn1 [Example 141]  97%
16. CCNC(=O)Nc1cc(-c2nc(-c3ccccn3)cs2)c(-c2cncc(-c3nnc(C)o3)c2)cn1 [Example 104, 1-Ethyl-3-(5′-(5-methyl-1,3,4-oxadiazol-2-yl)-4-(4-(pyridin-2-yl)thiazol-2-yl)-3,3′-bipyridin-6-yl)urea]  98%
17. CCNC(=O)Nc1cc(-c2nc(C(F)(F)F)cs2)c(-c2cncc(-c3nn(CCOC)c(=O)o3)c2)cn1 [Example 160]  98%
18. CCNC(=O)Nc1cc(-c2nnc(-c3ccccc3)o2)c(-c2cnc(-c3n[nH]c(=O)o3)cn2)cn1 [Example 195]  98%
19. CCNC(=O)Nc1cc(-c2nc(C(F)(F)F)cs2)c(-c2cncc(-c3nnc(COC(C)=O)o3)c2)cn1 [Example 276, (5-(6′-(3-ethylureido)-4′-(4-(trifluoromethyl)thiazol-2-yl)-3,3′-bipyridin-5-yl)-1,3,4-oxadiazol-2-yl)methyl acetate]  98%
20. CCNC(=O)Nc1cc(-c2nc(-c3ccccc3)cs2)c(-c2cc(OCC)nc(-c3nnc(C)o3)c2)cn1 [Example 78, 1-(2′-ethoxy-6′-(5-methyl-1,3,4-oxadiazol-2-yl)-4-(4-phenylthiazol-2-yl)-3,4′-bipyridin-6-yl)-3-ethylurea]  99%
21. CCNC(=O)Nc1cc(-c2nc(-c3cccnc3OCCOC)cs2)c(-c2cnc(OC)c(-c3n[nH]c(=O)o3)c2)cn1 [Example 207]  101%
22. CCNC(=O)Nc1cc(-c2nc(-c3ccncc3)cs2)c(-c2cncc(-c3n[nH]c(=O)o3)c2)cn1 [Example 39, N-ethyl-N′-[5′-(5-oxo-4,5-dihydro-1,3,4-oxadiazol-2-yl)-4-(4-pyridin-4-yl-1,3-thiazol-2-yl)-3,3′-bipyridin-6-yl]urea]  102%
23. CCNC(=O)Nc1cc(-c2nc(C(F)(F)F)cs2)c(-c2ccc3nccnc3c2)cn1 [Example 13]  103%
24. CCNC(=O)Nc1cc(-c2nc(C(F)(F)F)c(CNC3CCCC3)s2)c(-c2cncc(-c3n[nH]c(=O)o3)c2)cn1 [Example 53, 1-(4-(5-((cyclopentylamino)methyl)-4-(trifluoromethyl)thiazol-2-yl)-5′-(5-hydroxy-1,3,4-oxadiazol-2-yl)-3,3′-bipyridin-6-yl)-3-ethylurea hydrochloride]  109%
25. CCNC(=O)Nc1cc(-c2nc(C(F)(F)F)cs2)c(-c2cc(-c3n[nH]c(=O)o3)cnc2OC[C@H](C)O)cn1 [Example 226]  109%
26. CCNC(=O)Nc1cc(-c2nc(C(F)(F)F)cs2)c(-c2cc(-c3n[nH]c(=O)o3)cnc2OCCN2CCCC2)cn1 [Example 186]  110%
27. CCNC(=O)Nc1cc(-c2nc(C(F)(F)F)cs2)c(-c2nc(-c3ncnn3C)c(-c3n[nH]c(=O)o3)s2)cn1 [Example 37, 1-ethyl-3-(5-(4-(1-mcthyl-1H-1,2,4-triazol-5-yl)-5-(5-oxo-4,5-dihydro-1,3,4-oxadiazol-2-yl)thiazol-2-yl)-4-(4-(trifluoromethyl)thiazol-2-yl)pyridin-2-yl)urea]  112%
28. CCCCOc1ncc(-c2cnc(NC(=O)NCC)cc2-c2nc(C(F)(F)F)cs2)cc1-c1n[nH]c(=O)o1 [Example 40, 1-(6′-butoxy-5′-(5-oxo-4,5-dihydro-1,3,4-oxadiazol-2-yl)-4-(4-(trifluoromethyl)thiazol-2-yl)-3,3′-bipyridin-6-yl)-3-ethylurea]  117%
29. CCNC(=O)Nc1cc(-c2nc(C(F)(F)F)cs2)c(-c2cncc(-c3ccn[nH]3)c2)cn1 [Example 134]  120%
